According to patent US9777002B2, “Inhibitors of the renal outer medullary potassium channel” (Merck Sharp & Dohme Corp., priority 2012, dated 2017):

Biological target: T1, hROMK (hKir1.1) (Homo sapiens, UniProt P48048)
T1 construct: expressed in transfected cells
T1 sequence (P48048 1-391): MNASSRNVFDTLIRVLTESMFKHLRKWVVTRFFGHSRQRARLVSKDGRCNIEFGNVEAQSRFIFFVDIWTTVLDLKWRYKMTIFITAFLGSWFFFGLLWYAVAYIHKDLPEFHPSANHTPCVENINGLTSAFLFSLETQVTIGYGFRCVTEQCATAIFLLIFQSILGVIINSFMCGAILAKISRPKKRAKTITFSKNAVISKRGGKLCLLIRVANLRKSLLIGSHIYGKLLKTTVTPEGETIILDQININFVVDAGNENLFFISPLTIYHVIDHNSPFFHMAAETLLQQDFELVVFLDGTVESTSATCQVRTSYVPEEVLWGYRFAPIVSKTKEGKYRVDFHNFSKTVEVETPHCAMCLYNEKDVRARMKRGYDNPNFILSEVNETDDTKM
Test: Thallium Flux Assay
Format: cell-based
Conditions: HEK293 cells stably expressing hROMK (hKir1.1)
How it was run: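 HEK293 cells stably expressing hROMK were loaded with FluxOR dye for 90 min, then incubated with compound in probenecid assay buffer plus 0.3 mM ouabain, pH 7.4, for 30 min at 23-25 °C. Flux was triggered with 3 mM thallium/0.3 mM potassium (final) and read on FLIPR-Tetra for ~10 min. IC50 was calculated against the signal blocked by 3 μM control inhibitor.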

IC50 | Structure (SMILES)
110 nM | Cc1c([C@@H](O)CN2CCC(NC(=O)c3ccc(-n4cnnn4)nn3)CC2)ccc2c1COC2=O [Example 65, (R)-N-(1-(2-Hydroxy-2-(4-methyl-1-oxo-1,3-dihydroisobenzofuran-5-yl)ethyl)piperidin-4-yl)-6-(1H-tetrazol-1-yl)pyridazine-3-carboxamide]
320 nM | COc1cc(C(=O)NC2CCN(C[C@H](O)c3ccc4c(c3C)COC4=O)CC2)ccc1C#N [Example 57, (R)-4-Cyano-N-(1-(2-hydroxy-2-(4-methyl-1-oxo-1,3-dihydroisobenzofuran-5-yl)ethyl)piperidin-4-yl)-3-methoxybenzamide]
450 nM | Cc1c(CCN2CCC(NC(=O)c3ccnc(-n4cnnn4)c3)CC2)ccc2c1COC2=O [Example 15, N-(1-(2-(4-Methyl-1-oxo-1,3-dihydroisobenzofuran-5-yl)ethyl)piperidin-4-yl)-2-(1H-tetrazol-1-yl)isonicotinamide]
100 nM | Cc1c([C@@H](O)CN2CCC(NC(=O)c3ccc(-n4cccn4)cc3)CC2)ccc2c1COC2=O [Example 37, (R)-N-(1-(2-Hydroxy-2-(4-methyl-1-oxo-1,3-dihydroisobenzofuran-5-yl)ethyl)piperidin-4-yl)-4-(1H-pyrazol-1-yl)benzamide]
90 nM | Cc1cc(C(=O)NC2CCN(C[C@H](O)c3ccc4c(c3C)COC4=O)CC2)ncc1-n1cnnn1 [Example 59, (R)-N-(1-(2-Hydroxy-2-(4-methyl-1-oxo-1,3-dihydroisobenzofuran-5-yl)ethyl)piperidin-4-yl)-4-methyl-5-(1H-tetrazol-1-yl)picolinamide]
520 nM | Cc1c([C@@H](O)CN2CCC(NC(=O)c3ccc(C#N)nc3)C(F)C2)ccc2c1COC2=O (single isomer, unassigned) [46 A]
70 nM | COc1cc(C(=O)NC2CCN(CC(O)c3ccc(F)c(C#N)c3C)CC2)ccc1C#N (stereo not drawn) [Example 14, 4-Cyano-N-(1-(2-(3-cyano-4-fluoro-2-methylphenyl)-2-hydroxyethyl)piperidin-4-yl)-3-methoxybenzamide]
980 nM | Cc1c([C@@H](O)CN2CCC(CNC(=O)c3ccc(-n4cnnn4)cn3)C2)ccc2c1COC2=O (stereo partly drawn) [Example 86, N-((1-((R)-2-Hydroxy-2-(4-methyl-1-oxo-1,3-dihydroisobenzofuran-5-yl)ethyl)pyrrolidin-3-yl)methyl)-5-(1H-tetrazol-1-yl)picolinamide]
280 nM | Cc1c([C@@H](O)CN2CCC(C3(NC(=O)c4ccc(-n5cnnn5)nc4)CCC3)C2)ccc2c1COC2=O (single isomer, unassigned) [90 B]
60 nM | COc1ccc(C(=O)NC2CCN(CC(O)c3ccc4c(c3C)COC4=O)CC2)cc1C#N (stereo not drawn) [Example 10, 3-Cyano-N-(1-(2-hydroxy-2-(4-methyl-1-oxo-1,3-dihydroisobenzofuran-5-yl)ethyl)piperidin-4-yl)-4-methoxybenzamide]
160 nM | Cc1c([C@@H](O)CN2CCC(CNC(=O)c3ccc(-n4cnnn4)nc3)(c3ccccc3)C2)ccc2c1COC2=O (single isomer, unassigned) [81 B]
30 nM | Cc1c([C@@H](O)CN2CCC(NC(=O)c3ccc(C#N)cn3)CC2)ccc2c1COC2=O [Example 28, (R)-5-Cyano-N-(1-(2-hydroxy-2-(4-methyl-1-oxo-1,3-dihydroisobenzofuran-5-yl)ethyl)piperidin-4-yl)picolinamide]
760 nM | Cc1c([C@@H](O)CN2CCC(C3(NC(=O)c4ccc(-n5cnnn5)cn4)CCC3)C2)ccc2c1COC2=O (stereo partly drawn) [Example 70, N-(1-(1-((R)-2-Hydroxy-2-(4-methyl-1-oxo-1,3-dihydroisobenzofuran-5-yl)ethyl)pyrrolidin-3-yl)cyclobutyl)-5-(1H-tetrazol-1-yl)picolinamide]
720 nM | Cc1cc(C(=O)NC2CCN(C[C@@H](O)c3ccc4c(c3C)COC4=O)CC2)ncc1C#N [Example 23, (S)-5-cyano-N-(1-(2-hydroxy-2-(4-methyl-1-oxo-1,3-dihydroisobenzofuran-5-yl)ethyl)piperidin-4-yl)-4-methylpicolinamide]
360 nM | Cc1c([C@@H](O)CN2CCCC(C)(CNC(=O)c3ccc(-n4cnnn4)cn3)C2)ccc2c1COC2=O (stereo partly drawn) [Example 67, N-((1-((R)-2-Hydroxy-2-(4-methyl-1-oxo-1,3-dihydroisobenzofuran-5-yl)ethyl)-3-methylpiperidin-3-yl)methyl)-5-(1H-tetrazol-1-yl)picolinamide]
760 nM | CO[C@@H]1CN(C[C@H](O)c2ccc3c(c2C)COC3=O)CC[C@@H]1NC(=O)c1ccc(-n2cnnn2)nc1 (single isomer, unassigned) [54 A]
930 nM | Cc1c([C@@H](O)CN2CC[C@H](NC(=O)c3ccc(-n4cnnn4)nc3)[C@H](F)C2)ccc2c1COC2=O (single isomer, unassigned) [50 B]
310 nM | Cc1c([C@@H](O)CN2CCC(NC(=O)c3ccc(-c4cc[nH]n4)cc3)CC2)ccc2c1COC2=O [Example 39, (R)-N-(1-(2-Hydroxy-2-(4-methyl-1-oxo-1,3-dihydroisobenzofuran-5-yl)ethyl)piperidin-4-yl)-4-(1H-pyrazol-3-yl)benzamide]
80 nM | Cc1cc(C(=O)NC2CCN(C[C@H](O)c3ccc4c(c3C)COC4=O)CC2F)ncc1C#N (single isomer, unassigned) [48 A]
180 nM | Cc1c([C@@H](O)CN2CCC(C)(NC(=O)c3ccc(-n4cnnn4)cn3)CC2)ccc2c1COC2=O [Example 60, (R)-N-(1-(2-Hydroxy-2-(4-methyl-1-oxo-1,3-dihydroisobenzofuran-5-yl)ethyl)-4-methylpiperidin-4-yl)-5-(1H-tetrazol-1-yl)picolinamide]
30 nM | Cc1cc(C(=O)NC2CCN(C[C@H](O)c3ccc4c(c3C)COC4=O)CC2)ccc1C#N [Example 25, (R)-4-Cyano-N-(1-(2-hydroxy-2-(4-methyl-1-oxo-1,3-dihydroisobenzofuran-5-yl)ethyl)piperidin-4-yl)-3-methylbenzamide]
710 nM | Cc1c([C@@H](O)CN2CC3C(C2)C3NC(=O)c2ccc(-n3cnnn3)cn2)ccc2c1COC2=O (stereo partly drawn) [Example 56, N-(3-((R)-2-Hydroxy-2-(4-methyl-1-oxo-1,3-dihydroisobenzofuran-5-yl)ethyl)-3-azabicyclo[3.1.0]hexan-6-yl)-5-(1H-tetrazol-1-yl)picolinamide]
870 nM | Cc1c([C@@H](O)CN2CC[C@H](NC(=O)c3ccc(-n4cnnn4)cn3)[C@H](F)C2)ccc2c1COC2=O (single isomer, unassigned) [58 B]
280 nM | Cc1c([C@@H](O)CN2CCC(C)(NC(=O)c3ccc(-n4cnnn4)nn3)CC2)ccc2c1COC2=O [Example 71, (R)-N-(1-(2-Hydroxy-2-(4-methyl-1-oxo-1,3-dihydroisobenzofuran-5-yl)ethyl)-4-methylpiperidin-4-yl)-6-(1H-tetrazol-1-yl)pyridazine-3-carboxamide]
30 nM | COc1cc(F)c(C#N)cc1C(=O)NC1CCN(CCc2ccc3c(c2C)COC3=O)CC1 [Example 17, 5-Cyano-4-fluoro-2-methoxy-N-(1-(2-(4-methyl-1-oxo-1,3-dihydroisobenzofuran-5-yl)ethyl)piperidin-4-yl)benzamide]
530 nM | Cc1c([C@@H](O)CN2CCC(C)(NC(=O)c3ccc4nonc4c3)CC2)ccc2c1COC2=O [Example 77, (R)-N-(1-(2-Hydroxy-2-(4-methyl-1-oxo-1,3-dihydroisobenzofuran-5-yl)ethyl)-4-methylpiperidin-4-yl)benzo[c][1,2,5]oxadiazole-5-carboxamide]
20 nM | Cc1cc(C(=O)NC2CCN(C[C@H](O)c3ccc4c(c3C)COC4=O)CC2)ncc1C#N [Example 22, (R)-5-cyano-N-(1-(2-hydroxy-2-(4-methyl-1-oxo-1,3-dihydroisobenzofuran-5-yl)ethyl)piperidin-4-yl)-4-methylpicolinamide]
